From patent publication US20110009263A1, “SELECTED SALTS OF 3-(5,6-DIHYDRO-1,4,2-DIOXAZIN-3-YL)-N-[(4,6-DIMETHOXYPYRIMIDIN-2-YL)CARBAMOYL]PYRIDINE-2-SULFONAMIDE, METHOD FOR THE PRODUCTION THEREOF, AND USE THEREOF AS HERBICIDES AND PLANT GROWTH REGULATORS” (priority 2008, published 2011)

Legend:
Assay type in all cases: in vivo
[1] = system: Stellaria media; conditions: pre-emergence, application rate of 0.08 kg or less of active substance per hectare, 3 to 4 weeks
Description: (§1) Seeds or rhizome pieces of mono- and dicotyledonous weeds were placed in sandy loam in cardboard pots and covered with soil. The compounds according to the invention, formulated in the form of wettable powders or emulsion concentrates, were then applied to the surface of the covering soil in the form of aqueous suspensions or emulsions at an application rate of 100 to 800 l of water/ha (converted), at various dosages.
(§2) After the treatment, the pots were placed in a greenhouse and kept under good growth conditions for the weeds. The visual scoring of the damage to the plants or the emergence damage was carried out after the emergence of the test plants after a test period of 3 to 4 weeks, by comparison with untreated controls. As shown by the results, the compounds according to the invention have good herbicidal pre-emergence activity against a broad spectrum of weed grasses and broad-leaved weeds.

[2] = system: Matricaria inodora; conditions: pre-emergence, application rate of 0.08 kg or less of active substance per hectare, 3 to 4 weeks
Description: as §1, §2

[3] = system: Papaver rhoeas; conditions: pre-emergence, application rate of 0.08 kg or less of active substance per hectare, 3 to 4 weeks
Description: as §1, §2

[4] = system: Viola tricolor; conditions: pre-emergence, application rate of 0.08 kg or less of active substance per hectare, 3 to 4 weeks
Description: as §1, §2

[5] = system: Ambrosia elatior; conditions: for AMBEL (post-emergence herbicidal action score): 2-4 leaf stage, 5 g of a.i./ha, scored after four weeks, 0=no damage, 100=complete control
Procedure: (§3) Seeds or rhizome pieces of monocotyledonous and dicotyledonous weeds were placed in sandy loam in plastic pots (Jiffy pots), covered with soil and cultivated in a greenhouse under good and defined growth conditions, i.e. at a day/night rhythm of 22° C./14° C. At the 2-4 leaf stage, the plants were then treated with an aqueous test solution of various compounds according to the invention at the stated dosage. After four weeks, the tests were scored according to the scheme below:
(§4) 0=no damage; 100=complete control
(§5) The control used was the Na^+ salt of 3-(5,6-dihydro-1,4,2-dioxazin-3-yl)-N-[(4,6-dimethoxypyrimidin-2-yl)carbamoyl]pyridine-2-sulfonamide which is already known from U.S. Pat. No. 5,476,936.

[6] = system: Eleusine indica; conditions: for ELEIN (post-emergence herbicidal action score): 2-4 leaf stage, 5 g of a.i./ha, scored after four weeks, 0=no damage, 100=complete control
Procedure: as §3, §4, §5

Compound	herbicidal activity against Stellaria media [1]	herbicidal activity against Matricaria inodora [2]	herbicidal activity against Papaver rhoeas [3]	herbicidal activity against Viola tricolor [4]	AMBEL (post-emergence herbicidal action score) [5]	ELEIN (post-emergence herbicidal action score) [6]	control of Ambrosia elatior ([5]; post-emergence) [%]	effectiveness against the dicotyledonous weed Ambrosia elatior (in words) ([5]; post-emergence)	controlling action against the monocotyledonous weed Eleusine indica (in words) ([6]; post-emergence)
2-hydroxy-N,N,N-trimethylethanaminium {[3-(5,6-dihydro-1,4,2-dioxazin-3-yl)pyridin-2-yl]sulfonyl}[(4,6-dimethoxypyrimidin-2-yl)carbamoyl]azanide [Compound I-38]	very good herbicidal activity	very good herbicidal activity	very good herbicidal activity	very good herbicidal activity	80	85	–	–	–
CC(C)N.COc1cc(OC)nc(NC(=O)NS(=O)(=O)c2ncccc2C2=NOCCO2)n1 [Compound I-14, Propan-2-aminium {[3-(5,6-dihydro-1,4,2-dioxazin-3-yl)pyridin-2-yl]sulfonyl}[(4,6-dimethoxypyrimidin-2-yl)carbamoyl]azanide]	very good herbicidal activity	very good herbicidal activity	very good herbicidal activity	very good herbicidal activity	90	80	–	–	–
COc1cc(OC)nc(NC(=O)[N-]S(=O)(=O)c2ncccc2C2=NOCCO2)n1.[K+] [Compound I-2, Potassium {[3-(5,6-dihydro-1,4,2-dioxazin-3-yl)pyridin-2-yl]sulfonyl}[(4,6-dimethoxypyrimidin-2-yl)carbamoyl]azanide]	very good herbicidal activity	very good herbicidal activity	very good herbicidal activity	very good herbicidal activity	80	80	–	–	–
2-Hydroxy-N-(2-hydroxyethyl)ethanaminium {[3-(5,6-dihydro-1,4,2-dioxazin-3-yl)pyridin-2-yl]sulfonyl}[(4,6-dimethoxypyrimidin-2-yl)carbamoyl]azanide [Compound I-35]	very good herbicidal activity	very good herbicidal activity	very good herbicidal activity	very good herbicidal activity	85	80	–	–	–
COc1cc(OC)nc(NC(=O)NS(=O)(=O)c2ncccc2C2=NOCCO2)n1.N [Compound I-5, Ammonium {[3-(5,6-dihydro-1,4,2-dioxazin-3-yl)pyridin-2-yl]sulfonyl}[(4,6-dimethoxypyrimidin-2-yl)carbamoyl]azanide]	very good herbicidal activity	very good herbicidal activity	very good herbicidal activity	very good herbicidal activity	75	80	≥ 75	–	–
COc1cc(OC)nc(NC(=O)[N-]S(=O)(=O)c2ncccc2C2=NOCCO2)n1.[Li+] [Compound I-1, Lithium {[3-(5,6-dihydro-1,4,2-dioxazin-3-yl)pyridin-2-yl]sulfonyl}[(4,6-dimethoxypyrimidin-2-yl)carbamoyl]azanide]	very good herbicidal activity	very good herbicidal activity	very good herbicidal activity	very good herbicidal activity	80	85	–	–	–
2-Chloro-N,N,N-trimethylethanaminium {[3-(5,6-dihydro-1,4,2-dioxazin-3-yl)pyridin-2-yl]sulfonyl}[(4,6-dimethoxypyrimidin-2-yl)carbamoyl]azanide [Compound I-39]	very good herbicidal activity	very good herbicidal activity	very good herbicidal activity	very good herbicidal activity	80	93	–	–	–
2-(Acetyloxy)-N,N,N-trimethylethanaminium {[3-(5,6-dihydro-1,4,2-dioxazin-3-yl)pyridin-2-yl]sulfonyl}[(4,6-dimethoxypyrimidin-2-yl)carbamoyl]azanide [Compound I-40]	very good herbicidal activity	very good herbicidal activity	very good herbicidal activity	very good herbicidal activity	80	93	–	–	–
COc1cc(OC)nc(NC(=O)NS(=O)(=O)c2ncccc2C2=NOCCO2)n1.[Na] [control, Na^+ salt of 3-(5,6-dihydro-1,4,2-dioxazin-3-yl)-N-[(4,6-dimethoxypyrimidin-2-yl)carbamoyl]pyridine-2-sulfonamide, reference compound]	–	–	–	–	20	75	–	controlled relatively weakly	good controlling action
